Some results are limits rather than exact numbers.

Chain of Recombinant human HSD17B13 enzyme (Q7Z5P4 20-300): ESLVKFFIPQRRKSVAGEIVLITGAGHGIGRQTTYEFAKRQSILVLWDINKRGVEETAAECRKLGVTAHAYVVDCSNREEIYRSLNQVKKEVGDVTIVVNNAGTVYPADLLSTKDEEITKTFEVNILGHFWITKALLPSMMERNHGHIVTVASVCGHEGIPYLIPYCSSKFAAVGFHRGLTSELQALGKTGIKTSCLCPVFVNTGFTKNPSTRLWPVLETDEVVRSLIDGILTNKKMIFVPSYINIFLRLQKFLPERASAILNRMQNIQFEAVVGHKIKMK

The test deals with Recombinant human HSD17B13 enzyme (Homo sapiens (Human), UniProt Q7Z5P4). Description: HSD17b13 NAD(P)H-Glo Biochemical Assay. The following applies: 50 uM estradiol, 1 mM NAD+; read-out: HSD17β13 IC50. A digest of the protocol:
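Luminescent NAD(P)H-Glo detection (1 h, RT) quantified cofactor reduction after a 3 h, 37° C reaction of human HSD17B13 with estradiol (50 uM final) and NAD+ (1 mM final). Compounds were first pre-incubated 20 min at RT with enzyme in Tris pH 7.4 buffer containing Tween-20 and BSA.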
Turning to `Cc1nn(-c2cc(C(F)(F)F)c(F)c(O)c2F)c2cnc(N3CCOC4(CCC4)C3)nc12` [Compound 19.82, 2,6-Difluoro-3-(3-methyl-5-(5-oxa-8-azaspiro[3.5]nonan-8-yl)-1H-pyrazolo[4,3-d]pyrimidin-1-yl)-5-(trifluoromethyl)phenol], the IC50 was < 100 nM.

Regarding `Cc1nn(-c2cc(C(F)(F)F)c(F)c(O)c2F)c2cnc(N3CCN(S(=O)(=O)c4ccccc4)CC34CC4)cc12` [Compound 19.83, 2,6-Difluoro-3-(3-methyl-5-(7-(phenylsulfonyl)-4,7-diazaspiro[2.5]octan-4-yl)-1H-pyrazolo[3,4-c]pyridin-1-yl)-5-(trifluoromethyl)phenol], the IC50 was < 100 nM.

In the case of `Cc1nn(-c2cc(C(F)(F)F)c(F)c(O)c2F)c2cnc(N3CCN(S(=O)(=O)c4cnn(C)c4)CC34CC4)cc12` [Compound 19.84, 2,6-Difluoro-3-(3-methyl-5-(7-((1-methyl-1H-pyrazol-4-yl)sulfonyl)-4,7-diazaspiro[2.5]octan-4-yl)-1H-pyrazolo[3,4-c]pyridin-1-yl)-5-(trifluoromethyl)phenol], the IC50 is < 100 nM.

Turning to `Cc1nn(-c2cc(O)c(F)c(C(F)(F)F)c2)c2cnc(N3CCOCC34CC4)cc12` [Compound 19.85, 2-Fluoro-5-(3-methyl-5-(7-oxa-4-azaspiro[2.5]octan-4-yl)-1H-pyrazolo[3,4-c]pyridin-1-yl)-3-(trifluoromethyl)phenol], the IC50 is < 100 nM.

As to `CC(=O)c1cc(-n2nc(C)c3cc(N4CCOCC45CC5)ncc32)cc(O)c1F` [Compound 19.86, 1-(2-Fluoro-3-hydroxy-5-(3-methyl-5-(7-oxa-4-azaspiro[2.5]octan-4-yl)-1H-pyrazolo[3,4-c]pyridin-1-yl)phenyl)ethanone], the IC50 lay within 100 to 1000 nM.

For `CN(c1ccc2c(c1)c(Cl)nn2-c1cc(C(F)(F)F)c(F)c(O)c1F)C1CCOCC1` [Compound 19.87, 3-(3-Chloro-5-(methyl(tetrahydro-2H-pyran-4-yl)amino)-1H-indazol-1-yl)-2,6-difluoro-5-(trifluoromethyl)phenol], the concentration for half-maximal inhibition (IC50) was in the range of 100 to 1000 nM.

Turning to `COC(=O)c1nn(-c2cc(C(F)(F)F)c(F)c(O)c2F)c2ccc(N(C)C3CCOCC3)cc12` [Compound 19.88, Methyl 1-(2,4-difluoro-3-hydroxy-5-(trifluoromethyl)phenyl)-5-(methyl(tetrahydro-2H-pyran-4-yl)amino)-1H-indazole-3-carboxylate], the IC50 lay within 100 to 1000 nM.

As for `CN(c1ccc2c(c1)c(C(=O)O)nn2-c1cc(C(F)(F)F)c(F)c(O)c1F)C1CCOCC1` [Compound 19.89, 1-(2,4-Difluoro-3-hydroxy-5-(trifluoromethyl)phenyl)-5-(methyl(tetrahydro-2H-pyran-4-yl)amino)-1H-indazole-3-carboxylic Acid], the IC50 fell in the range of 1000 to 30000 nM.

As to `CN(c1ccc2c(c1)c(C#N)nn2-c1cc(C(F)(F)F)c(F)c(O)c1F)C1CCOCC1` [Compound 19.90, 1-(2,4-Difluoro-3-hydroxy-5-(trifluoromethyl)phenyl)-5-(methyl(tetrahydro-2H-pyran-4-yl)amino)-1H-indazole-3-carbonitrile], the IC50 is 100 to 1000 nM.

Consider `CNc1c(-n2nc(Cl)c3cc(N(C)C4CCOCC4)ccc32)cc(C(F)(F)F)c(F)c1O` [Compound 19.91, 3-(3-Chloro-5-(methyl(tetrahydro-2H-pyran-4-yl)amino)-1H-indazol-1-yl)-6-fluoro-2-(methylamino)-5-(trifluoromethyl)phenol], for which the half-inhibitory concentration (IC50) was 100 to 1000 nM.

For `Cc1nn(-c2cc(O)c(F)c(NC(=O)C(F)(F)F)c2)c2cnc(N3CCOCC34CC4)cc12` [Compound 19.92, 2,2,2-Trifluoro-N-(2-fluoro-3-hydroxy-5-(3-methyl-5-(7-oxa-4-azaspiro[2.5]octan-4-yl)-1H-pyrazolo[3,4-c]pyridin-1-yl)phenyl)acetamide], the half-inhibitory concentration (IC50) was 1000 to 30000 nM.

Take `CN(c1ccc2c(c1)c(N)nn2-c1cc(C(F)(F)F)c(F)c(O)c1F)C1CCOCC1` [Compound 19.93, 3-(3-Amino-5-(methyl(tetrahydro-2H-pyran-4-yl)amino)-1H-indazol-1-yl)-2,6-difluoro-5-(trifluoromethyl)phenol]: the IC50 is 100 to 1000 nM.

Regarding `Cc1nn(-c2cc(C(F)(F)F)c(F)c(O)c2F)c2ccc(N3CCOCC34CC4)cc12` [Compound 19.94, 2,6-Difluoro-3-(3-methyl-5-(7-oxa-4-azaspiro[2.5]octan-4-yl)-1H-indazol-1-yl)-5-(trifluoromethyl)phenol], the IC50 was < 100 nM.

As for `Cc1nn(-c2cc(C(F)(F)F)c(F)c(O)c2F)c2cnc(N3CCOCC34CC4)nc12` [Compound 19.95, 2,6-Difluoro-3-(3-methyl-5-(7-oxa-4-azaspiro[2.5]octan-4-yl)-1H-pyrazolo[4,3-d]pyrimidin-1-yl)-5-(trifluoromethyl)phenol], the IC50 lay within 100 to 1000 nM.

With `Cc1nn(-c2cc(O)c(F)c(C(N)=O)c2)c2cnc(N3CCOCC34CC4)cc12` [Compound 19.96, 2-Fluoro-3-hydroxy-5-(3-methyl-5-(7-oxa-4-azaspiro[2.5]octan-4-yl)-1H-pyrazolo[3,4-c]pyridin-1-yl)benzamide], the IC50 lay in the range of 1000 to 30000 nM.

Consider `Cc1nn(-c2cc(O)c(F)c(C(C)O)c2)c2cnc(N3CCOCC34CC4)cc12` (stereo not shown) [Compound 19.97, 2-Fluoro-3-(1-hydroxyethyl)-5-(3-methyl-5-(7-oxa-4-azaspiro[2.5]octan-4-yl)-1H-pyrazolo[3,4-c]pyridin-1-yl)phenol], for which the IC50 was in the range of 1000 to 30000 nM.

For the molecule `Cc1nn(-c2cc(O)c(F)c(C(C)(F)F)c2)c2cnc(N3CCOCC34CC4)cc12` [Compound 19.98, 3-(1,1-Difluoroethyl)-2-fluoro-5-(3-methyl-5-(7-oxa-4-azaspiro[2.5]octan-4-yl)-1H-pyrazolo[3,4-c]pyridin-1-yl)phenol], the concentration for half-maximal inhibition (IC50) was 100 to 1000 nM.

For the molecule `Cc1nn(-c2cc(O)c(F)c(C(=O)N(C)C)c2)c2cnc(N3CCOCC34CC4)cc12` [Compound 19.99, 2-Fluoro-3-hydroxy-N,N-dimethyl-5-(3-methyl-5-(7-oxa-4-azaspiro[2.5]octan-4-yl)-1H-pyrazolo[3,4-c]pyridin-1-yl)benzamide], the IC50 was in the range of 100 to 1000 nM.

Regarding `Cc1nn(-c2cc(C(F)(F)F)c(F)c(O)c2F)c2cc(F)c(N3CCN(S(C)(=O)=O)CC34CC4)cc12` [Compound 19.100, 2,6-Difluoro-3-(6-fluoro-3-methyl-5-(7-(methylsulfonyl)-4,7-diazaspiro[2.5]octan-4-yl)-1H-indazol-1-yl)-5-(trifluoromethyl)phenol], the IC50 was < 100 nM.

Consider `Cc1nn(-c2cc(C(F)(F)F)c(F)c(O)c2F)c2ccc(N(C)C3CCOCC3)c(F)c12` [Compound 19.101, 2,6-Difluoro-3-(4-fluoro-3-methyl-5-(methyl(tetrahydro-2H-pyran-4-yl)amino)-1H-indazol-1-yl)-5-(trifluoromethyl)phenol], for which the half-maximal inhibitory concentration (IC50) is 100 to 1000 nM.

Consider `Cc1nn(-c2cc(C(F)(F)F)c(F)c(O)c2F)c2cnc(N(C)C3CCOCC3)c(F)c12` [Compound 19.102, 2,6-Difluoro-3-(4-fluoro-3-methyl-5-(methyl(tetrahydro-2H-pyran-4-yl)amino)-1H-pyrazolo[3,4-c]pyridin-1-yl)-5-(trifluoromethyl)phenol], for which the IC50 is 100 to 1000 nM.

Consider `Cc1nn(-c2ccc(F)c(O)c2)c2cc(F)c(N3CCN(S(C)(=O)=O)CC34CC4)cc12` [Compound 19.103, 2-Fluoro-5-(6-fluoro-3-methyl-5-(7-(methylsulfonyl)-4,7-diazaspiro[2.5]octan-4-yl)-1H-indazol-1-yl)phenol], for which the half-maximal inhibitory concentration (IC50) lay within 100 to 1000 nM.

The values above are taken from patent publication US20240034736A1, “HSD17B13 INHIBITORS AND USES THEREOF” (FL2022-001, Inc., priority 2020, published 2024).
